# Ends that are not written are not given here.
# Tests used:
# IAV A/PR/8/34 [1] = test system: IAV A/PR/8/34; set-up: species or system C57BL/6 mice; conditions: mouse, in vivo
# IAV A/PR/8/34 [2] = test system: IAV A/PR/8/34; set-up: species or system C57BL/6 mice; conditions: mouse, in vivo; remark: listed apart in the source
# IFN-γ [3] = test system: IFN-γ; set-up: species or system C57BL/6 mice; conditions: mouse, in vivo
# IAV A/PR/8/34 [4] = test: Survival and weight loss of IAV-infected IFN-γ-deficient mice treated with peptide; conditions: 50 000 pfu/mice
# Description: Six-weeks-old IFN-γ-deficient mice (background C57BL/6, n=36) obtained from the INRA “Experimental Infectiology Platform” of Tours (France) were anaesthetized once and infected intranasally with 50 000 pfu of A/PR/8/34 in the presence or absence of SLIGRL-NH2. C57BL/6J/WT mice (n=20) were used as control. Infected mice were then monitored daily for survival.
# neutrophils = test system: neutrophils; set-up: species or system C57BL/6 mice; conditions: mouse, in vivo
# RANTES [5] = test system: RANTES; set-up: species or system C57BL/6 mice; conditions: mouse, in vivo
# IAV A/PR/8/34 [6] = test system: IAV A/PR/8/34; set-up: species or system C57BL/6 mice; conditions: mouse, in vivo; remark: listed apart in the source
# RANTES [7] = assay type: cell-based, human
# IAV A/PR/8/34 (H1N1) = assay type: cell-based, influenza virus type A
# IFN-γ [8] = assay type: cell-based, human
# PAR2 = biological target: T1, PAR2 (Homo sapiens, UniProt P55085); test: Flow cytometry of PAR2 expression in A549 cells after PAR2 stimulation; assay type: cell-based; conditions: 250 μM peptide, 24 hours post-stimulation, permeabilized cells
# T1 construct: endogenous in cells; host or cells: A549 (human alveolar type II epithelial cell line, ATCC)
# T1 sequence (P55085 26-397): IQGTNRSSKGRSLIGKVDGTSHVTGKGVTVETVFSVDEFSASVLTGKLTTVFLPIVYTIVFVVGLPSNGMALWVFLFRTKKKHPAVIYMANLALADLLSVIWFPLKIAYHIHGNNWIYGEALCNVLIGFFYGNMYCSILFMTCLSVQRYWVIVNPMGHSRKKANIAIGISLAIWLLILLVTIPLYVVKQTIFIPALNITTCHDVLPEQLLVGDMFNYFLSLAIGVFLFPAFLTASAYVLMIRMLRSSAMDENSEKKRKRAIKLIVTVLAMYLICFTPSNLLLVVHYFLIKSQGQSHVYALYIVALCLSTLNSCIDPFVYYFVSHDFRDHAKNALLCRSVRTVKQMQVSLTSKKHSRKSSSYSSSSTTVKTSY
# Description: A549 cells were infected or not at a MOI of 0.001 for 24 hours and flow cytometry experiments were done on permeabilized cells, as previously described (Riteau B. et al. 2001; Riteau B. et al. 2001), using the SAM11 anti-PAR2 antibody (Santa-cruz biotechnology, Inc, USA). PAR2 stimulation of A549 cells was performed using 250 μM of PAR2 specific activating peptide SLIGRL-NH2 and flow cytometry experiment was performed 24 hours post-stimulation.
substance,measurement,setting,value
LRGILS-NH2 [reference compound],overall appearance of lungs (photographic pictures),IAV A/PR/8/34 [1],severely injured
same,survival rate,IAV A/PR/8/34 [2],had no effect
same,IFN-γ release in BAL after IAV infection,IFN-γ [3],No significant increase
SLIGRL-NH2,kinetic of weight loss after IAV infection,IAV A/PR/8/34 [4],did not modify
same,protection from death,IAV A/PR/8/34 [4],did not protect mice from death
same,influx of neutrophils in BAL,neutrophils,significantly decreased
same,number of neutrophils in BAL at 48-hours compared to level at 24-hours,neutrophils,significantly increased
same,IAV-induced increase of RANTES in BAL,RANTES [5],significantly inhibited
same,release of RANTES in BAL,RANTES [5],three-fold increase
same,decreased infectious virus load in lungs at lower doses of IAV infection,IAV A/PR/8/34 [6],also observed
same,infectious virus load in lungs,IAV A/PR/8/34 [6],significantly decreased
same,RANTES level,RANTES [7],at the limit of detection
same,RANTES production,RANTES [7],significantly inhibited
same,histopathologic examination of the lungs,IAV A/PR/8/34 [1],lack evidence of pathology
same,inhibition of IAV replication in the presence of anti-IFNγ neutralizing antibody,IAV A/PR/8/34 (H1N1),could be reversed
same,virus production,IAV A/PR/8/34 (H1N1),produced less virus
same,IFN-γ level,IFN-γ [8],at the limit of detection
same,IFN-γ release,IFN-γ [8],induced IFN-γ release
same,time of peak IFN-γ release,IFN-γ [8],8 hours post-infection
same,"protection stable, inhibiting mortality until",IAV A/PR/8/34 [2],≥ 12 days
same,survival rate,IAV A/PR/8/34 [2],"protected mice from death, in a dose-dependent manner"
same,effect on PAR2 synthesis,PAR2,had no effect
same,IFN-γ release in BAL after IAV infection,IFN-γ [3],significant increase
same,release of IFN-γ in BAL,IFN-γ [3],no effect

# Source: patent US9125861B2, “PAR2 agonists for use in the treatment or prevention of influenza virus type A infections” (Institut National de la Sante et de la Recherche Medicale …, priority 2009, dated 2015)
